Patent publication US20090011937A1, “Use of Fungicides for Increasing the Quality and Optionally the Quantity of Oil-Plant Products” (priority 2006, published 2009)

Experiments:
Type in all cases: in vivo
Oilseed rape [1] = assay: Phosphorus content of oil, oilseed rape treated with metconazole, pressing with normal pressure (DIN EN 14107); settings: oil of rapeseed, Germany 2004/2005; spray autumn and spring, in each case 60 g active ingredient per ha; pressed under normal pressure; untreated 1.9
Experimental: (§1) Oilseed rape was grown in 2004/2005 in Germany under the usual conditions. In autumn 2004 (growth stage BBCH 14-16) and in spring 2005 (growth stage BBCH 31-51), some of the oilseed rape was treated by spraying with metconazole (employed in the form of the commercially available product Caramba®; application rate: in each case 60 g active ingredient per ha). For comparison purposes, the remainder of the oilseed rape remained untreated. The plants were harvested in summer 2005 (growth stage BBCH 92). The rapeseed was pressed with a press from Ökotec under normal pressure (nozzle 8, 40 rpm, temperature at the pressing head 60° C.), and the phosphorus content and the alkaline-earth metal content (Ca, Mg) of the resulting oil were determined in accordance with DIN EN 14107 and DIN EN 14538, respectively.

Oilseed rape [2] = assay: Alkaline-earth metal content (Ca, Mg) of oil, oilseed rape treated with metconazole, pressing with normal pressure (DIN EN 14538); settings: oil of rapeseed, Germany 2004/2005; spray autumn and spring, in each case 60 g active ingredient per ha; pressed under normal pressure; untreated 5.7
Experimental: as §1

[3] = tested on: Oilseed rape cv. "Trabant"; assay: Phosphorus content of oil, oilseed rape treated with metconazole or metconazole in combination with boscalid, pressing at high pressure (DIN EN 14107); settings: oil of rapeseed cv. Trabant, Bothkamp 2005/2006; metconazole 60 g/ha autumn and spring, boscalid 250 g/ha at anthesis; pressed under high pressure; untreated 5.0
Experimental: Oilseed rape cv. “Trabant” was grown under the usual conditions in 2005/2006 in Germany at the Bothkamp site. In autumn 2005 (growth stage BBCH 16-18) and in spring 2006 (BBCH 31-51), some of the oilseed rape plants were treated by spraying with metconazole (employed in the form of the commercially available product Caramba®; application rate: in each case 60 g active ingredient per ha). Some other oilseed rape plants were furthermore additionally treated during anthesis (BBCH 65) by spraying with boscalid (employed in the form of the commercially available product Cantus®; application rate: 250 g active substance per ha). For comparison reasons, some of the rapeseed plants remained untreated. The plants were harvested in summer 2006 (growth stage BBCH 92). The rapeseed was pressed with a press from Ökotec under high pressure (nozzle 6, 70 rpm, temperature at the pressing head >70° C.), and the phosphorus content of the resulting oil was determined in accordance with DIN EN 14107.

[4] = tested on: Oilseed rape cv. "Trabant"; assay: Alkaline-earth metal content of oil, oilseed rape treated with metconazole, pressing with normal pressure and high pressure (DIN EN 14538)
Experimental: Oilseed rape cv. “Trabant” was grown under the usual conditions in 2005/2006 in Germany at the Bothkamp site. In autumn 2005 (growth stage BBCH 16-18) and in spring 2006 (BBCH 31-51), some of the oilseed rape plants were treated by spraying with metconazole (employed in the form of the commercially available product Caramba®; application rate: in each case 60 g active ingredient per ha). For comparison reasons, the remainder of the rapeseed plants remained untreated. The plants were harvested in summer 2006 (growth stage BBCH 92). The rapeseed was pressed with a press from Ökotec and the alkaline-earth metal content (Ca, Mg) of the resulting oil was determined as specified in DIN EN 14538. Here, part of the rapeseed was pressed under normal pressure (nozzle 8, 40 rpm, temperature at the pressing head 60° C.) and another portion under high pressure (nozzle 6, 70 rpm, temperature at the pressing head >70° C.).

[5] = tested on: Oilseed rape cv. "Lioness"; assay: Overall contamination of oil from treated oilseed rape (DIN EN 12662); settings: oil of rapeseed cv. Lioness, Britain 2005/2006; spray during anthesis (BBCH 61-65); normal pressure; untreated 33
Experimental: Oilseed rape cv. “Lioness” was grown in 2005/2006 in Britain under the normal conditions. During anthesis (growth stage BBCH 61-65), the rapeseed plants were treated by spraying either with boscalid (employed in the form of the commercially available product Cantus®; application rate: 250 g active substance per ha), with boscalid in combination with dimoxystrobin (employed in the form of the commercially available product Pictor®; application rate: in each case 100 g active substance per ha), with prothioconazole (employed in the form of the commercially available product Proline®; application rate: 175 g active substance per ha) or with azoxystrobin (employed in the form of the commercially available product Amistar®; application rate: 200 g active substance per ha). For comparison reasons, some of the rapeseed plants remained untreated. The plants were harvested in summer 2006 (BBCH 92). The rapeseed was pressed with a press from Ökotec under normal pressure (nozzle 8, 40 rpm, temperature at the pressing head 60° C.), and the overall contamination of the oil obtained was determined as specified in DIN EN 12662.

[6] = tested on: Oilseed rape cv. "Lioness"; assay: Sulfur content of oil from treated oilseed rape (EN ISO 20884); settings: oil of rapeseed cv. Lioness, Britain 2005/2006; spray during anthesis; normal pressure; untreated 4
Experimental: Oilseed rape cv. “Lioness” was grown in 2005/2006 in Britain under the normal conditions. During anthesis (growth stage BBCH 61-65), the rapeseed plants were treated by spraying either with boscalid (employed in the form of the commercially available product Cantus®; application rate: 250 g active substance per ha), with boscalid in combination with dimoxystrobin (employed in the form of the commercially available product Pictor®; application rate: in each case 100 g active substance per ha), with prothioconazole (employed in the form of the commercially available product Proline®; application rate: 175 g active substance per ha) or with azoxystrobin (employed in the form of the commercially available product Amistar®; application rate: 200 g active substance per ha). For comparison reasons, some of the rapeseed plants remained untreated. The plants were harvested in summer 2006 (BBCH 92). The rapeseed was pressed with a press from Ökotec under normal pressure (nozzle 8, 40 rpm, temperature at the pressing head 60° C.), and the sulfur content of the oil obtained was determined as specified in EN ISO 20884.

[7] = tested on: Oilseed rape cv. "Talent"; assay: Resistance to oxidation of oil, oilseed rape treated with boscalid or boscalid in combination with dimoxystrobin (DIN EN 14112); settings: oil of rapeseed cv. Talent, Tachenhausen 2005/2006; spray during anthesis; normal pressure; untreated 9.5
Experimental: Oilseed rape cv. “Talent” was grown in 2005/2006 under the usual conditions at the Tachenhausen site in Germany. During anthesis (growth stage BBCH 61-65), the oilseed rape plants were treated by spraying either with boscalid (employed in the form of the commercially available product Cantus®; application rate: 250 g active substance per ha) or with boscalid in combination with dimoxystrobin (employed in the form of the commercially available product Pictor®; application rate: in each case 100 g active ingredient per ha). For comparison reasons, some of the oilseed rape plants remained untreated. The plants were harvested in summer 2006 (BBCH 92). The rapeseed was pressed with a press from Ökotec under normal pressure (nozzle 8, 40 rpm, temperature at the pressing head 60° C.), and the resistance to oxidation of the oil obtained was determined as specified in DIN EN 14112.

[8] = tested on: Oilseed rape cv. "Lioness"; assay: Acid content of oil, oilseed rape treated with boscalid or boscalid in combination with dimoxystrobin (DIN EN 14104); settings: oil of rapeseed cv. Lioness, Britain 2005/2006; spray during anthesis; normal pressure; untreated 0.41
Experimental: Oilseed rape cv. “Lioness” was grown in 2005/2006 in Britain under the normal conditions. During anthesis (growth stage BBCH 61-65), the rapeseed plants were treated by spraying either with boscalid (employed in the form of the commercially available product Cantus®; application rate: 250 g active substance per ha) or with boscalid in combination with dimoxystrobin (employed in the form of the commercially available product Pictor®; application rate: in each case 100 g active substance per ha). For comparison reasons, some of the rapeseed plants remained untreated. The plants were harvested in summer 2006 (BBCH 92). The rapeseed was pressed with a press from Ökotec under normal pressure (nozzle 8, 40 rpm, temperature at the pressing head 60° C.), and the acid content of the oil obtained was determined as specified in DIN EN 14104.

[9] = tested on: Oilseed rape cv. "Talent"; assay: Iodine number of oil, oilseed rape treated with boscalid (EN 14111); settings: oil of rapeseed cv. Talent, Tachenhausen 2005/2006; boscalid 250 g/ha during anthesis; normal pressure; untreated 108
Experimental: Oilseed rape cv. “Talent” was grown in 2005/2006 under the usual conditions at the Tachenhausen site in Germany. During anthesis (growth stage BBCH 61-65), the oilseed rape plants were treated by spraying with boscalid (employed in the form of the commercially available product Cantus®; application rate: 250 g active substance per ha). For comparison reasons, some of the oilseed rape plants remained untreated. The plants were harvested in summer 2006 (BBCH 92). The rapeseed was pressed with a press from Ökotec under normal pressure (nozzle 8, 40 rpm, temperature at the pressing head 60° C.), and the iodine number of the oil obtained was determined as specified in EN 14111.

In the case of `CC1(C)CCC(Cc2ccc(Cl)cc2)C1(O)Cn1cncn1` (stereo not drawn) [2 × metconazole, metconazole], the Phosphorus content (Oilseed rape [1]) is reported as <1 mg/kg, the “Alkaline-earth metal content (Ca + Mg)” value (Oilseed rape [2]) is reported as 3.9 mg/kg and the Phosphorus content [3] is reported as 4.0 mg/kg. The “Brittleness of the seed coat” value ([4]; inferred from the more pronounced reduction of alkaline-earth metal content in high-pressure oil versus normal-pressure oil) was “appears to reduce the brittleness of the seed coat”, the “Alkaline-earth metal content (Ca + Mg) - high pressure” value ([4]; oil of rapeseed cv. Trabant, Bothkamp 2005/2006, metconazole 60 g/ha autumn and spring, high pressure (nozzle 6, 70 rpm, >70° C.), untreated 9) was 5 mg/kg and the “Alkaline-earth metal content (Ca + Mg) - normal pressure” value ([4]; oil of rapeseed cv. Trabant, Bothkamp 2005/2006, metconazole 60 g/ha autumn and spring, normal pressure (nozzle 8, 40 rpm, 60° C.), untreated 6) was 4 mg/kg.
`CO/C=C(/C(=O)OC)c1ccccc1Oc1cc(Oc2ccccc2C#N)ncn1` [Azoxystrobin, azoxystrobin] was tested, and the Overall contamination [5] was 24 mg/kg and the Sulfur content [6] was 2 mg/kg.
`O=C(Nc1ccccc1-c1ccc(Cl)cc1)c1cccnc1Cl` [Boscalid, boscalid] was tested, and the Overall contamination [5] was 20 mg/kg, the “Resistance to oxidation at 110° C.” value [7] was 9.7 h and the Acid number [8] was 0.32 mg KOH/g. The Iodine number [9] was 105 g iodine per 100 g and the Sulfur content [6] was 2 mg/kg.
`OC(Cc1ccccc1Cl)(Cn1nc[nH]c1=S)C1(Cl)CC1` (stereo not drawn) [Prothioconazole, prothioconazole] showed an Overall contamination [5] of 22 mg/kg and a Sulfur content [6] of 2 mg/kg.
